Measurements as given in EP2545917B1, “NOVEL EP4 AGONIST” (Kaken Pharmaceutical Co., Ltd., priority 2010, dated 2011).

Assays:
[1] = tested on: Human Platelet Aggregation; assay: Inhibitory effect on ADP-induced platelet aggregation in platelet-rich plasma; type: cell-based; conditions: ADP 10 µmol/L, geometric mean of three volunteers
Method: The inhibitory effect of compounds F and J, and carboxylate forms thereof on platelet aggregation was evaluated. The carboxylate forms were prepared by separating and purifying the compound synthesized in Example 15 with a column. Blood was drawn from 3 healthy volunteers using sodium citrate as an anticoagulant, and platelet-rich plasma was prepared. The platelet-rich plasma was treated with physiological saline or test compounds and, 2 min later, platelet aggregation was induced with adenosine diphosphate (ADP, final concentration 10 µmol/L) and recorded with a platelet aggregation measurement apparatus (nephelometry).

[2] = tested on: IP-10; assay: Suppressive effect on cytokine production, whole blood stimulated with lipopolysaccharide, ELISA; type: cell-based; conditions: human whole blood, indometacin, 48 hr, geometric mean of three volunteers
[3] = target: T1, Human EP4 (Homo sapiens, UniProt P35408); assay: EP4 agonist activity, CRE-LUC reporter gene in transfected COS-7 cells; type: cell-based
T1 construct: expressed in transfected cells; host or cells: COS-7
T1 sequence (P35408 whole entry): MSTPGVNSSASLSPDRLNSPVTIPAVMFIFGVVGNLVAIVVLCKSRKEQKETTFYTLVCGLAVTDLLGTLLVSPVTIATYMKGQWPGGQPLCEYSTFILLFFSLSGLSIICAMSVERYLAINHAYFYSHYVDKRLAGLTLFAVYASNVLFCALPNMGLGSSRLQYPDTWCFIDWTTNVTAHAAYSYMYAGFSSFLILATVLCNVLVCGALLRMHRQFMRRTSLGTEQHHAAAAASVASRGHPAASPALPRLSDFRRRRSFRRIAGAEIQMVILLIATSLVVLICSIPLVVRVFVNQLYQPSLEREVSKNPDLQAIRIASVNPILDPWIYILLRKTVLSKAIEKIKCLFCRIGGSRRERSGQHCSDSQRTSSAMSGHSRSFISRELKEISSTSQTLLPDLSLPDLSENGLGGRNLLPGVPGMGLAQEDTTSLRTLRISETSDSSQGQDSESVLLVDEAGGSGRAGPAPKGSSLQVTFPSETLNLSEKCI
Method: In brief, human EP4 gene and CRE-LUC reporter gene were transfected into COS-7 cells. The cells were treated with a test compound one day later, and incubated for 3 hr. The cells were washed, a luminescence substrate was added, and the luminescence intensity was measured for the agonist activity.

[4] = target: T2, Human IP (Homo sapiens, UniProt P43119); assay: Receptor affinity, tritium-labeled iloprost binding to membranes of transfected COS-7 cells; conditions: COS-7 cell membranes
T2 construct: expressed in transfected cells; host or cells: COS-7
T2 sequence (P43119 whole entry): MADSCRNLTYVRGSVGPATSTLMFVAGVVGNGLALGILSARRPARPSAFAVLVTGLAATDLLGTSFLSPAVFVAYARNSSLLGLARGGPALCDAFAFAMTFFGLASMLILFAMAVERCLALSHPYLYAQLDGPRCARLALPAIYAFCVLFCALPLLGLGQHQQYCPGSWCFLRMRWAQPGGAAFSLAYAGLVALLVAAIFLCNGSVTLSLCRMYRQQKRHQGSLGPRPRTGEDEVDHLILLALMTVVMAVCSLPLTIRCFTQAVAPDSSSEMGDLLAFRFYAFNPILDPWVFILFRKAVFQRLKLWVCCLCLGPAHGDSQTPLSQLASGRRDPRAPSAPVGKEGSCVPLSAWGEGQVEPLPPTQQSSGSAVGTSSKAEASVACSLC
Method: (§1) PG receptor affinity of compound F and compound J of the present invention was evaluated. Compound F used was one synthesized in Example 9, and compound J was prepared by separating and purifying the compound synthesized in Example 14 with a column (the same preparations were used in the following Examples). COS-7 cells were transfected with the genes of mouse EP4, human EP1-4 or human IP to overexpress the receptor and then the cell membranes were collected. As a labeled ligand, tritium-labeled PGE2 was used for EPs; tritium-labeled iloprost, for IP. The dissociation constant Kd value was obtained and inhibition constant Ki value of each test compound was determined in a conventional method. As a reference control, PGE2 was used for EPs; beraprost sodium (BPS), for IP.

[5] = Plasma pharmacokinetics after intravenous administration to rats; type: in vivo; conditions: male, rat
Method: To verify the in vivo metabolic stability of the compound of the present invention, plasma pharmacokinetics was evaluated after intravenous administration to rats. Male rats (6 weeks old, body weight 160 - 180 g) were acclimated for 1 week, and the animals diagnosed healthy were used. A mixture of compound F and compound J of the present invention described in Table 1 (F:J = 52:41), and a mixture of carboxylate forms of compound F and compound J (F:J = 54:34), and compound F (synthesized in Example 9) were dissolved in a small amount of ethanol and physiological saline was added to prepare test compound solutions. The test compound solutions were instantaneously administered intravenously at 1 mL/kg from the femoral vein of non-fasting rats under light ether anesthesia. Venous blood was drawn from the tail vein 5, 15, 30, 45, 60, 90 and 120 min after administration. The blood was mixed with heparin and centrifuged (3000 rpm, 4°C, 15 min) to obtain plasma. The plasma compound concentration was determined by the internal standard method using LC-MS/MS. The determination range by this method was from 0.1 to 100 ng/mL. The compound concentrations obtained from each rat were analyzed in a model-independent way using a pharmacokinetics analysis software WinNonlin (ver.3.3), and average ± standard deviation of 3 animals for each group was obtained.

[6] = target: T3, Human EP1 (Homo sapiens, UniProt P34995); assay: Receptor affinity, tritium-labeled PGE2 binding to membranes of transfected COS-7 cells
T3 construct: expressed in transfected cells; host or cells: COS-7
T3 sequence (P34995 1-402): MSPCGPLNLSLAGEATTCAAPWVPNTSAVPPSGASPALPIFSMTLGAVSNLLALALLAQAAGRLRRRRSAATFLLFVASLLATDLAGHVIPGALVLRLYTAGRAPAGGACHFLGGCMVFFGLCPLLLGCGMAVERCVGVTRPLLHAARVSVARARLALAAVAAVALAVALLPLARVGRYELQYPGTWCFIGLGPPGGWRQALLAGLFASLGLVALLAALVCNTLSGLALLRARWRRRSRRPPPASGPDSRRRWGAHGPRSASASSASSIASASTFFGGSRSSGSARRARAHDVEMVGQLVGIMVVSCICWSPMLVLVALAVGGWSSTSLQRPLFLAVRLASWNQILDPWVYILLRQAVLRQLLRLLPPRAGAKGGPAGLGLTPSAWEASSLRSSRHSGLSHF
Method: as §1

[7] = target: T4, Mouse EP4 (Mus musculus, UniProt P32240); assay: as above
T4 construct: expressed in transfected cells; host or cells: COS-7
T4 sequence (P32240 whole entry): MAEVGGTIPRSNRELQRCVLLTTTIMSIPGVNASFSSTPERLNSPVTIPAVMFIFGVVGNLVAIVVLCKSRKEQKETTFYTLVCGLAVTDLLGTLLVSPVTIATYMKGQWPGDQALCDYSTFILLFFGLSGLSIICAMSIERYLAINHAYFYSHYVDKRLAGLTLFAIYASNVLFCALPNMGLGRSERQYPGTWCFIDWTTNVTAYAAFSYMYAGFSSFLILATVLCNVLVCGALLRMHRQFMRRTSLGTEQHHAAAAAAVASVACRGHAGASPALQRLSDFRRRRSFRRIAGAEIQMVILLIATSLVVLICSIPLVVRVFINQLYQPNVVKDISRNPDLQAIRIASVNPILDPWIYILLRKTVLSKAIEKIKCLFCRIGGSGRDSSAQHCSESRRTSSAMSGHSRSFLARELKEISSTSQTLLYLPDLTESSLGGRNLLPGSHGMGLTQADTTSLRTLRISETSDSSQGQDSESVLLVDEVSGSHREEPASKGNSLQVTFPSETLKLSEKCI
Method: as §1, with “As a labeled ligand, tritium-labeled PGE2 was used for EPs; tritium-labeled iloprost, for IP.” left out, “method.” for “method. As a reference control, PGE2 was used for EPs; beraprost sodium (BPS), for IP.”

[8] = target: T5, Human EP2 (Homo sapiens, UniProt P43116); assay: as above
T5 construct: expressed in transfected cells; host or cells: COS-7
T5 sequence (P43116 whole entry): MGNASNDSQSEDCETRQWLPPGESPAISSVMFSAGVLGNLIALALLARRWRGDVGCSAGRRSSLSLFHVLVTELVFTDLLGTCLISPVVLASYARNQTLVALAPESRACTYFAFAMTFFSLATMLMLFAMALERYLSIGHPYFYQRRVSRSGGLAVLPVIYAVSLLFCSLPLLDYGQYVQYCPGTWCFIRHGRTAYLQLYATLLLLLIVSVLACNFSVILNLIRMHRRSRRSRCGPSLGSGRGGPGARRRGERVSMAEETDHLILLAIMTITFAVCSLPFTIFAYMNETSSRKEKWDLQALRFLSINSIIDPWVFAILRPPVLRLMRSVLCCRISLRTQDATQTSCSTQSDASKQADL
Method: as §1, with “As a labeled ligand, tritium-labeled PGE2 was used for EPs; tritium-labeled iloprost, for IP.” left out, “method.” for “method. As a reference control, PGE2 was used for EPs; beraprost sodium (BPS), for IP.”

[9] = In vitro metabolic stability: β-oxidation reaction in rat liver mitochondria fraction; type: in vitro ADME; conditions: parent compound after NADPH-independent β-oxidation reaction, 37°C, 30 min, tested as isomer mixtures, average ± SD of 3 experiments
Method: A mixture of the compound F and compound J of the present invention described in Table 1 (F:J = 52:41, synthesized in Example 14), and a mixture of compounds wherein the tetrazole groups at C-1 of compound F and compound J are respectively substituted by carboxylic acid (referred to as carboxylate form, F:J = 54:34, synthesized in Example 15) were tested.
First, a mitochondria fraction was prepared from the rat liver according to the following Reference A. Then, in reference to the method of […] et al. described in the following References B and C, an NADPH-independent β oxidation reaction was studied. The reaction was carried out at 37°C for 30 min, and stopped with a methanol solution containing a suitable internal standard substance. Each compound was quantified by the internal standard method using a high performance liquid chromatography mass spectrometry apparatus (LC-MS/MS). The compound residual ratio after metabolic reaction of compounds F, J and each carboxylate form thereof in rat mitochondria fraction is shown in the following Table 2 in average ± standard deviation of 3 experiments. Table 2 Residual Ratio of Parent Compound after β-Oxidation Reaction

[10] = target: T6, Human EP3 (Homo sapiens, UniProt P43115); assay: Receptor affinity, tritium-labeled PGE2 binding to membranes of transfected COS-7 cells
T6 construct: expressed in transfected cells; host or cells: COS-7
T6 sequence (P43115 1-390): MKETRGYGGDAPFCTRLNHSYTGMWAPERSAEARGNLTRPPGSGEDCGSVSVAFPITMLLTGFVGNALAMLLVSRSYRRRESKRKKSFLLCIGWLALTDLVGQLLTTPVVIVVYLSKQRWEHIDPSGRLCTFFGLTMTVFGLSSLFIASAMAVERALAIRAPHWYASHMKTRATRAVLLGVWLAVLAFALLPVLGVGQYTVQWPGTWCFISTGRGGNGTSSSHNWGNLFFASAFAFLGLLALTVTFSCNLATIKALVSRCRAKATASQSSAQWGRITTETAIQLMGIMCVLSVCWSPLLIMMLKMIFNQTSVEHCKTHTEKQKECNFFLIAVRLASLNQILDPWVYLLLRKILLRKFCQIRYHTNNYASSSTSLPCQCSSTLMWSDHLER
Method: (§2) COS-7 cells were transfected with the genes of mouse EP4, human EP1-4 or human IP to overexpress the receptor and then the cell membranes were collected. […] The dissociation constant Kd value was obtained and inhibition constant Ki value of each test compound was determined in a conventional method.

[11] = target: T1, Human EP4; assay: as above
Method: as §2

[12] = tested on: IL-2; assay: Suppressive effect on cytokine production, CD4 positive T cells stimulated with anti-CD3 and anti-CD28 antibody, ELISA; type: cell-based; conditions: human CD4 positive T cells, anti-CD3/anti-CD28, 24 hr; geometric mean of three volunteers
Method: (§3) Blood was collected from 3 healthy volunteers, and CD4 positive T cells were prepared. […] In both cases, the test compound was added 30 min before stimulation.

[13] = tested on: TNF-α; assay: as above; type: cell-based; conditions: human CD4 positive T cells, anti-CD3/anti-CD28, 24 hr; geometric mean of three volunteers
Method: as §3

[14] = tested on: dextran sodium sulfate-induced colitis; assay: Dextran sodium sulfate-induced colitis model in mice (C57BL/6); type: in vivo; conditions: C57BL/6 mice, DSS, oral 0.3 mg/kg once a day
Method: Female C57BL/6 mice (6 weeks old, Japan SLC) were purchased, acclimated for 1 week and used for the study. Except the normal group, the mice were allowed to freely drink a 3 or 2 w/v% DSS (MP Biochemicals, Lot No. 5653H and 5464H, respectively) solution for 1 week to induce colitis. BPS at a dose of 0.3 mg/kg and compound F at doses of 0.3 and 1 mg/kg were orally administered once a day, daily, from the start day of DSS drinking (day 0) to one day before autopsy (day 9). To the control group was orally administered a solvent (1 vol% ethanol solution) at 10 mL/kg in the same manner. The consistency of the stool was graded from score 0 to 4, with normal (0), partly loose stool (1), loose stool (2) and diarrhea (4). The blood feces was also graded from score 0 to 4, with normal (0), partly blood feces (1), blood feces (2) and blood feces plus proctorrhagia (4). The sum of both grades was defined as the stool score (maximum 8). Furthermore, the length of the large intestine was measured in the same manner as in Example 23. Six to 10 animals were used for each group, and the results are shown in average ± standard deviation.

[15] = tested on: blood pressure and heart rate; assay: Effect on blood pressure and heart rate in mice; type: in vivo, ICR mice; conditions: intravenous 0.01 mg/5 mL/kg, isoflurane anesthesia
Method: Male ICR mice (5 weeks old, Japan SLC) were purchased, acclimated for 6 days and used for the test. The animals were treated and measured under isoflurane inhalation anesthesia (anesthesia introduced at 2.5%, maintained at 1.8-2.1%), while body temperature was kept at 37°C with a Heat Controller (ATC-402, Unique Medical Co., Ltd.). A catheter for administration of test compounds was inserted into the left femoral vein, and another catheter was inserted into the right femoral artery and connected to a pressure transducer to record each parameter of hemodynamics.
Compound F, the carboxylate form of compound F and BPS were intravenously administered at a dose of 0.01 mg/5 mL/kg, and the effect on the mean blood pressure and heart rate was evaluated with computer software for the analysis of hemodynamics (Fluclet, Dainippon Sumitomo Pharma Co., Ltd.). To the control group was intravenously administered a solvent (1.2% ethanol solution) at 5 mL/kg in the same manner. The results are expressed as a ratio of change in each parameter before and after the drug administration. Three to 6 animals were used for each group, and the results were expressed as average ± standard deviation.

Row | Structure (SMILES) | IC50 [1] [nM] | IC50 [2] [nM] | EC50 [3] [nM] | Ki [4] [nM] | half-life ([5]; iv, 50 ug/kg) [h] | half-life ([5]; rats, intravenous, summary of Table 3) [h] | Ki [6] [nM] | Ki [7] [nM] | Ki [8] [nM] | Residual ratio [9] [%] | Ki [10] [nM] | Ki [11] [nM] | affinity for binding to human EP4 higher than that to human IP ([11]; ratio of Ki values) [fold] | IC50 [12] [nM] | IC50 [13] [nM] | effect on stool score [14] | effect on the shortening of the large intestine [14] | effect on heart rate [15] | maximum decrease ratio of mean blood pressure [15] [%]
1 | Cc1cccc([C@H](C)[C@H](O)/C=C/[C@@H]2[C@@H]3[C@H](C[C@H]2O)O/C(=C\CCCc2nnn[nH]2)C3(F)F)c1 [Compound J, 4-[(Z)-(1S,5R,6R,7R)-6-[(1E,3R,4S)-3-hydroxy-4-(m-tolyl)-1-pentenyl]-7-hydroxy-2-oxa-4,4-difluoro-bicyclo[3.3.0]octan-3-ylidene]-1-(tetrazol-5-yl)butane] | 2720 | 102 | 440 | 3400 | 1.28 ± 0.317 | 1 to 2 | 4600 | 590 | 5400 | 90.1±6.9 | 1500 | 83 | 40 | 64 | 89.5 | – | – | – | –
2 | CCCCC[C@H](O)/C=C/[C@H]1[C@H](O)CC(=O)[C@@H]1C/C=C\CCCC(=O)O [PGE2, reference compound] | – | – | – | – | – | – | 2.9 | – | – | – | – | – | – | 0.062 | – | – | – | – | –
3 | CC#CCC(C)[C@H](O)/C=C/[C@@H]1[C@H]2c3cccc(CCCC(=O)O)c3O[C@H]2C[C@H]1O (mixture of isomers) [BPS, beraprost sodium, reference compound] | 36 | – | > 1000 | 160 | – | – | 942 | – | 4990 | – | 946 | 6150 | – | – | – | not effective, but rather showed a tendency toward aggravation of the stool score | no effect on the shortening of the large intestine | on the increase and remained high even after 10 min | 38
